Results published in patent US20040119048A1, “Process of making aqueous perborate bleach composition” (Unilever Home & Personal Care USA, Divison of Conopco, Inc., priority 2002, published 2004).

Test: Iterative determination of perborate solubility in water and polyol/water (visual appearance, pH)
Assay type: physicochemical
Procedure: An iterative process was used to determine the extent of perborate solubilty in water and polyol/water. 1.5 g of Na perborate monohydrate was added either to 100 g of water (Table 1A) or to 90 g water and 10 g sorbitol (70% active) (Table 1B). The mixture was stirred until all of sodium perborate monohydrate was dissolved. A 0.5 g aliquot of sodium perborate monohydrate was then added to the solution while stirring and visually monitored to see if all the added sodium perborate monohydrate dissolves. If the aliquot dissolved, another 0.5 g of sodium perborate monohydrate would be added. This procedure was continued until the added perborate no longer appeared to dissolve.

Question: What does the source list for `O.O=BO[O-].[Na+]` [Sodium Perborate monohydrate, sodium perborate monohydrate]?
Answer: solubility in water in the presence of polyol (90 g water + 10 g sorbitol (70%)): up to 8.5 g; increase of perborate solubility by polyol (aqueous environment, with polyol vs without): about 400%
